The record followed here is patent US8901118B2, “Compounds and methods for kinase modulation, and indications therefor” (Plexxikon Inc., priority 2010, dated 2014).

The target in assay [1] is TrkA kinase (Homo sapiens, UniProt P04629). The assay can be described thus: TrkA kinase biochemical activity assay (AlphaScreen). To be noted: 100 μM ATP; read-out: Biochemical Inhibition IC50 TrkA. The gist of the method:
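Recombinant TrkA with 30 nM biotin-(E4Y)10 and 100 μM ATP in 25 mM Hepes pH 7.5, 10 mM MnCl2, 5% DMSO, 40 min at room temperature. Phosphorylation read by AlphaScreen (streptavidin donor, PY20 acceptor beads); IC50 from signal vs compound concentration. TrkC run similarly.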
In general terms: Alpha assays give light when donor and acceptor beads are brought close together.

Assay [2] has as its target Fms kinase (Homo sapiens, UniProt P07333). The assay can be described thus: Fms kinase biochemical activity assay (AlphaScreen, biotin-(E4Y)10 phosphorylation). To be noted: 100 μM ATP; read-out: Biochemical Inhibition IC50 Fms. The gist of the method:
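Fms kinase (1 ng/well) phosphorylating 30 nM biotin-(E4Y)10 with 100 μM ATP in 25 mM Hepes pH 7.5, MgCl2/MnCl2, 5% DMSO, 20 min at 30 °C. Phosphotyrosine detected by AlphaScreen streptavidin donor and PY20 acceptor beads; IC50 from signal versus compound concentration.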

Assay [3] has as its target CYP2D6 (Homo sapiens, UniProt P10635). Kind of assay: CYP2D6 inhibition (fluorescent substrate AMMC). Type of assay: in vitro ADME. Conditions: read-out: Cyp IC50 2D6. The gist of the method: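 Inhibition is measured as the drop in fluorescent metabolite formation across a 10-point compound titration with NADPH regeneration at 37 °C. Incubation lasts 15 min for CYP1A2, 45 min for CYP2C9 and 30 min for CYP2C19 and CYP2D6.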

Sequence of CYP2D6 (P10635 whole entry): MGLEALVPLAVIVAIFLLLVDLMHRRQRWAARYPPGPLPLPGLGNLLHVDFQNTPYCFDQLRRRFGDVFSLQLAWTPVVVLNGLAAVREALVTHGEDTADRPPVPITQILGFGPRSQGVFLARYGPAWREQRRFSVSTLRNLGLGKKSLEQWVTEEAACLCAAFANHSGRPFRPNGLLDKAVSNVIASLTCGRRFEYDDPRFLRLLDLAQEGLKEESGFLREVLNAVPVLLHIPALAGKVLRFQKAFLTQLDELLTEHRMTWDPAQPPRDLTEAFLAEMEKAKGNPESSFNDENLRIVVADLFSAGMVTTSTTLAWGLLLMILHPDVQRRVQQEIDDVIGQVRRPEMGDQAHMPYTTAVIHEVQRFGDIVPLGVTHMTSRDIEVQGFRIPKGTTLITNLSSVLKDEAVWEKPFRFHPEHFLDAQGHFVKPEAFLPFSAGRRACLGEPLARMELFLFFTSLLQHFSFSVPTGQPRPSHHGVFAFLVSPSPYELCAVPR
Sequence of Fms kinase (P07333 20-972): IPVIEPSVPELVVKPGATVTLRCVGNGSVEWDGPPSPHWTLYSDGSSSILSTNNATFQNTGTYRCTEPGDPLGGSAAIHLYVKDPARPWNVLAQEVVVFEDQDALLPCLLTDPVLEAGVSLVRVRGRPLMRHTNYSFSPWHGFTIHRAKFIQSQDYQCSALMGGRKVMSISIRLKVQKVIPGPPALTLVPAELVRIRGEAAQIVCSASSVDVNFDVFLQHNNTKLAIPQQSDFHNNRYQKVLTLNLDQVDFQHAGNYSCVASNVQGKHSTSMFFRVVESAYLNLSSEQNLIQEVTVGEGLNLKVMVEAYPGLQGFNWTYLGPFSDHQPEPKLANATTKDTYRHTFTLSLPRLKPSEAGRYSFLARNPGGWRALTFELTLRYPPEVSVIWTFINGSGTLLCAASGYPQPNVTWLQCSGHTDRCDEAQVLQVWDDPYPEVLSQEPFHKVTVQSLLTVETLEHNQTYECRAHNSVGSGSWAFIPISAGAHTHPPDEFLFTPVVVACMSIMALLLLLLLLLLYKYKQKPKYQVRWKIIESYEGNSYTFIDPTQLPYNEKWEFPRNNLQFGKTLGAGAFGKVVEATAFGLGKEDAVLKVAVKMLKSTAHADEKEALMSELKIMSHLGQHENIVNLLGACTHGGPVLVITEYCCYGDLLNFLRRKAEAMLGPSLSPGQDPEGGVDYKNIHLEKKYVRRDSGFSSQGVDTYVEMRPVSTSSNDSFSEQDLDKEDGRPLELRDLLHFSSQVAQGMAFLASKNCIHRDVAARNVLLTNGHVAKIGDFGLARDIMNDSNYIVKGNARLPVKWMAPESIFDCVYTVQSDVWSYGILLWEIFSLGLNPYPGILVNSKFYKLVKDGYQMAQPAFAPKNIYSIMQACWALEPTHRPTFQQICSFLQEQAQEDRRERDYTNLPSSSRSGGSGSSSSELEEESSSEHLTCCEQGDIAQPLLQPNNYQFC
Sequence of TrkA kinase (P04629 33-796): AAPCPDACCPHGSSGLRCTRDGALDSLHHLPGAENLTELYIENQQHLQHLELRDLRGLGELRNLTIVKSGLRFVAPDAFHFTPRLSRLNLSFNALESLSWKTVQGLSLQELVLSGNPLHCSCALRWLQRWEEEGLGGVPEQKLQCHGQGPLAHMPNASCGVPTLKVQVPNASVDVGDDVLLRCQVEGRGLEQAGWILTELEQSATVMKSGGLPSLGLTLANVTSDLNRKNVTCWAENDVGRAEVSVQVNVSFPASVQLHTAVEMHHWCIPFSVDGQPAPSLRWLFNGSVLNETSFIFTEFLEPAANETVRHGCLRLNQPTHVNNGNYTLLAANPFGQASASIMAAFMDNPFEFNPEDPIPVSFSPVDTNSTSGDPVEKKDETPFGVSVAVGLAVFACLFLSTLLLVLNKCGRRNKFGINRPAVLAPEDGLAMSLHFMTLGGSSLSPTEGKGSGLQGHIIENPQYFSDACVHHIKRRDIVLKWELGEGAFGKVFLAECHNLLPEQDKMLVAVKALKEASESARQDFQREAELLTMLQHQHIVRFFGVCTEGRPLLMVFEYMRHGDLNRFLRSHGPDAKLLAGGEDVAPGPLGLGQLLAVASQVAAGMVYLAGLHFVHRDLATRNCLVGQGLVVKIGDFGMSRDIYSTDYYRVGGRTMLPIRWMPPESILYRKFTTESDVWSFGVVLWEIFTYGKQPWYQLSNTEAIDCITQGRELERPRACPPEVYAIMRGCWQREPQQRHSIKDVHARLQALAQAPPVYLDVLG

One may read the IC50 as the point on the concentration scale where inhibition reaches its midpoint. For `CCc1ccc(Nc2ccc(C(=O)c3c[nH]c4ncnc(NCCOC)c34)c(F)n2)cn1` [Compound P-4119, [6-[(6-ethyl-3-pyridyl)amino]-2-fluoro-3-pyridyl]-[4-(2-methoxyethylamino)-7H-pyrrolo[2,3-d]pyrimidin-5-yl]methanone], the 50% inhibitory concentration (IC50) is less than 10 nM in assay [1], less than 10 nM in assay [2] and greater than 10000 nM in assay [3].

Consider `CCc1ccc(Nc2ccc(C(=O)c3c[nH]c4ncnc(NCC(F)(F)F)c34)c(F)n2)cn1` [Compound P-4120, [6-[(6-ethyl-3-pyridyl)amino]-2-fluoro-3-pyridyl]-[4-(2,2,2-trifluoroethylamino)-7H-pyrrolo[2,3-d]pyrimidin-5-yl]methanone], for which the values for the 50% inhibitory concentration (IC50) in assay [1], in assay [2] and in assay [3] were less than 100 nM, less than 100 nM and less than 5000 nM, respectively.

On to `CCc1ccc(Nc2ccc(C(=O)c3c[nH]c4ncnc(NCC(C)C)c34)c(F)n2)cn1` [Compound P-4121, [6-[(6-ethyl-3-pyridyl)amino]-2-fluoro-3-pyridyl]-[4-(isobutylamino)-7H-pyrrolo[2,3-d]pyrimidin-5-yl]methanone], for which the concentration for half-maximal inhibition (IC50) in assay [1] was less than 100 nM; in assay [2] it was less than 100 nM; in assay [3], greater than 10000 nM.

Regarding `CCCNc1ncnc2[nH]cc(C(=O)c3ccc(Nc4ccc(CC)nc4)nc3F)c12` [Compound P-4122, [6-[(6-ethyl-3-pyridyl)amino]-2-fluoro-3-pyridyl]-[4-(propylamino)-7H-pyrrolo[2,3-d]pyrimidin-5-yl]methanone], the IC50 in assay [1] is less than 10 nM; in assay [2], less than 10 nM; in assay [3], greater than 10000 nM.

For the compound `CCNc1ncnc2[nH]cc(C(=O)c3ccc(Nc4ccc(CC)nc4)nc3F)c12` [Compound P-4123, [4-(ethylamino)-7H-pyrrolo[2,3-d]pyrimidin-5-yl]-[6-[(6-ethyl-3-pyridyl)amino]-2-fluoro-3-pyridyl]methanone], the half-inhibitory concentration (IC50) in assay [1] was less than 10 nM; in assay [2], less than 10 nM; in assay [3], greater than 10000 nM.

For `CCc1ccc(Nc2ccc(C(=O)c3c[nH]c4ncnc(NC)c34)c(F)n2)cn1` [Compound P-4124, [6-[(6-ethyl-3-pyridyl)amino]-2-fluoro-3-pyridyl]-[4-(methylamino)-7H-pyrrolo[2,3-d]pyrimidin-5-yl]methanone], the half-inhibitory concentration (IC50) in assay [1] is less than 10 nM; in assay [2], less than 10 nM; in assay [3], less than 5000 nM.

For `CCc1ccc(Nc2ccc(C(=O)c3c[nH]c4ncnc(NC5CC5)c34)c(F)n2)cn1` [Compound P-4125, [4-(cyclopropylamino)-7H-pyrrolo[2,3-d]pyrimidin-5-yl]-[6-[(6-ethyl-3-pyridyl)amino]-2-fluoro-3-pyridyl]methanone], the concentration for half-maximal inhibition (IC50) in assay [1] is less than 10 nM; in assay [2], less than 100 nM; in assay [3], greater than 5000 nM.

Take `COc1ccc(Nc2ccc(C(=O)c3c[nH]c4ncnc(NC5CC5)c34)c(F)n2)cn1` [Compound P-4126, [4-(cyclopropylamino)-7H-pyrrolo[2,3-d]pyrimidin-5-yl]-[2-fluoro-6-[(6-methoxy-3-pyridyl)amino]-3-pyridyl]methanone]: the IC50 in assay [1] was less than 10 nM; in assay [2] it was less than 10 nM; in assay [3], greater than 10000 nM.

Take `Fc1cc(Cc2c[nH]c3ncnc(NC4CC4)c23)cnc1NC1CCC(F)(F)CC1` [Compound P-4127, N-cyclopropyl-5-[[6-[(4,4-difluorocyclohexyl)amino]-5-fluoro-3-pyridyl]methyl]-7H-pyrrolo[2,3-d]pyrimidin-4-amine]: the concentration for half-maximal inhibition (IC50) in assay [1] was less than 100 nM; in assay [2] it was less than 100 nM; in assay [3] it was greater than 10000 nM.
